One compound from patent US20150164833A1, “NUTRITIONAL COMPOSITION CONTAINING A NEUROLOGIC COMPONENT OF URSOLIC ACID AND USES THEREOF” (MEAD JOHNSON NUTRITION COMPANY, priority 2013, published 2015) can be followed below.

The assay deals with human adipose-derived stem cells (hADSCs). The assay can be described thus: Neurogenesis (neuronal differentiation) of hADSCs in serum-free neuronal differentiation medium, phase contrast microscopy. The class given is cell-based. As to the method:
This example describes the neurogenesis of hADSCs by ursolic acid as compared to DHA (positive control) and hADSCs cultured in the absence of either ursolic acid and DHA (negative control). Ursolic acid was purchased from Sigma-Aldrich (Cat. No. U6753) and diluted in 95% ethanol to a concentration of […], giving a clear faint yellow stick solution that was then stored at −20° C.
hADSCs were purchased from Invitrogen®, also known as Life Technologies, of Carlsbad, Calif., U.S.A., and were cultured as near confluent monolayers in 100 mm culture plates within a maintenance medium consisting of Complete MesenPro RS™ medium with growth supplement and L-glutamine, also obtained from Invitrogen®. The process of culturing, passage, and seeding the hADSCs is described below. The cells were then subjected to removal and reseeded at a density of 0.5-1×10^4 cells/mL onto a 24-well culture plate with poly-L-ornithine and bovine plasma fibronectin coating. The culture medium is the same as the aforementioned maintenance medium. Three days after seeding, the culture medium was changed to a neuronal differentiation medium.
The subculture of hADSCs was performed when cell culture reached confluence. […]

With `C[C@H]1[C@H](C)CC[C@]2(C(=O)O)CC[C@]3(C)C(=CC[C@@H]4[C@@]5(C)CC[C@H](O)C(C)(C)[C@@H]5CC[C@]43C)[C@H]12` [ursolic acid, 3-beta-3-hydroxy-urs-12-ene-28-oic-acid], the “neurogenesis of hADSCs (cells undergoing neurogenesis)” value (30-120 μg/mL ursolic acid, phase contrast microscopy at 24, 48 and 96 hours) is recorded as “A large percentage of cells underwent neurogenesis”. Also, the “neuronal morphology of hADSCs” value (ursolic acid at 60 μg/mL, phase contrast microscopy, FIG. 1C) was “neuronal morphological changes and neurite outgrowth”.
